Data from PubChem BioAssay (NCI).
Several values for one entry are separate records, joined by “and”; a condition that tells them apart may be missing. Equal values may be shown once.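 Compound exposure: 48 hours, 5 concentrations, 96-well plates. The concentration for 50% growth inhibition is given as GI50. TGI denotes the concentration required for complete inhibition of growth.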

Columns and labels:
Assay in all cases: NCI tumour cell line growth inhibition, 48 h
DMS 273 small cell lung = system: DMS 273 small cell lung
SNB-78 CNS = system: SNB-78 CNS
LXFL 529 NSCLC = system: LXFL 529 NSCLC
M19-MEL melanoma = system: M19-MEL melanoma
HOP-18 NSCLC = system: HOP-18 NSCLC
DMS 114 small cell lung = system: DMS 114 small cell lung
DLD-1 colon = system: DLD-1 colon
RXF-631 renal = system: RXF-631 renal
P388 leukemia = system: P388 leukemia
SN12K1 renal = system: SN12K1 renal
P388/ADR leukemia = system: P388/ADR leukemia

Compound	TGI (DMS 273 small cell lung)	TGI (SNB-78 CNS)	TGI (LXFL 529 NSCLC)	TGI (M19-MEL melanoma)	TGI (HOP-18 NSCLC)	TGI (DMS 114 small cell lung)	TGI (DLD-1 colon)	TGI (RXF-631 renal)	GI50 (DMS 273 small cell lung)	GI50 (HOP-18 NSCLC)	TGI (P388 leukemia)	GI50 (DLD-1 colon)	GI50 (SN12K1 renal)	TGI (SN12K1 renal)	GI50 (SNB-78 CNS)	GI50 (M19-MEL melanoma)	TGI (P388/ADR leukemia)
CCN(CC)/[N+]([O-])=N/OC	> 100 µM	> 100 µM	> 100 µM	> 100 µM	–	–	–	–	–	–	–	–	–	–	–	–	–
CCOC(=O)C(=CNC(Cc1c[nH]c2ccccc12)C(=O)OC)C(=O)OCC (stereo not given)	–	> 100 µM	> 100 µM	> 100 µM	> 100 µM	> 100 µM	> 100 µM	> 100 µM	–	–	–	–	–	–	–	–	–
COC(=N)C(C)C	> 100 µM	> 100 µM	> 100 µM	> 100 µM	–	> 100 µM	> 100 µM	–	–	–	–	–	–	–	–	–	–
O=S1c2ccccc2N=C(c2ccc3ccccc3c2)CC1c1ccccc1 (stereo not given)	> 100 µM	> 100 µM	29.8 µM	34.9 µM	–	–	48.4 µM	–	–	–	–	–	–	–	–	–	–
C=C1CCCC(C)(C)[C@@H]1CC/C(C)=C/Cn1c2cccc(=O)c-2nc2ccccc21	24.1 µM and 3.29 µM	> 100 µM	–	–	> 100 µM and 18.2 µM	2.3 µM	–	–	3.02 µM	37.2 µM	> 100 µM	4.86 µM	2.89 µM	15.5 µM and 13.2 µM	4.35 µM	3.07 µM	–
O=c1oc2c(ccc3occc32)c(N2CCCCC2)c1-c1ccccc1	> 100 µM	> 100 µM	–	> 100 µM	> 100 µM	> 100 µM	> 100 µM	–	–	–	> 100 µM	–	–	> 100 µM	–	–	> 100 µM
NC(N)=NS(=O)(=O)c1ccc(Nc2c3ccccc3nc3c(C(=O)N4CCN(CCO)CC4)ccc(Cl)c23)cc1	–	> 100 µM	–	> 100 µM	–	> 100 µM	> 100 µM	–	–	–	–	–	–	–	–	–	–
O=CC(O)C(O)C(O)COc1cc(CO)cc2c1C(=O)c1ccccc1C2=O (stereo not given)	> 100 µM	> 100 µM	> 100 µM	> 100 µM	> 100 µM	> 100 µM	> 100 µM	> 100 µM	–	–	–	–	–	–	–	–	–
